# Values quoted from earlier work, collected in patent US11779591B2, “Compositions containing decitabine, 5azacytidine and tetrahydrouridine and uses thereof” (Epidestiny, Inc., priority 2015, dated 2023).
# Conditions: rapid deamination by CDA
smiles,measurement,value
"Nc1ccn([C@@H]2O[C@H](CO)[C@@H](O)[C@@H]2[18F])c(=O)n1 [FAC, 1-(2′-deoxy-2′-[18F]-fluoro-β-D-arabinofuranosyl)cytosine]",distribution into solid tissues such as the liver and kidneys,did not adequately distribute into solid tissues
